Here are results for 4 compounds from patent US20240115682A1, “METHODS OF TREATING CANCER USING HETEROARYL-BIPHENYL AMIDE DERIVATIVES” (CHEMOCENTRYX, INC., priority 2020, published 2024).

“Also recorded” adds a separate entry of the source. Like-named read-outs stand apart in the source and are kept apart here.

Data set [1] addresses human PD-L1 / human PD-1 interaction (Homo sapiens (Human), UniProt Q9NZQ7). The experiment in a line: PD-1/PD-L1 binding ELISA. As for the experimental part:
96 Well plates were coated with 1 μg/mL of human PD-L1 (obtained from R&D) in PBS overnight at 4° C. The wells were then blocked with 2% BSA in PBS (W/V) with 0.05% TWEEN-20 for 1 hour at 37° C. The plates were washed 3 times with PBS/0.05% TWEEN-20 and the compounds were serial diluted (1:5) in dilution medium and added to the ELISA plates. Human PD-1 and biotin 0.3 μg/mL (ACRO Biosystems) were added and incubated for 1 hour at 37° C. then washed 3 times with PBS/0.05% TWEEN-20. A second block was performed with 2% BSA in PBS (W/V)/0.05% TWEEN-20 for 10 min at 37° C. and the plates were washed 3 times with PBS/0.05% TWEEN-20. Streptavidin-HRP was added for 1 hour at 37° C. then the plates were washed 3 times with PBS/0.05% TWEEN-20. TMB substrate was added and reacted for 20 min at 37° C. A stop solution (2 N aqueous H2SO4) was added. The absorbance was read at 450 nm using a micro-plate spectrophotometer. The results are shown in Table 1: IC50 values are provided as follows: from 1000 to 10,000 nM (+); from 10 up to 1000 nM (++); less than 10 nM (+++).
ELISA: This assay was performed substantially as described in Biological Example 1.
For orientation: ELISA stands for enzyme-linked immunosorbent assay.

The target of data set [2] is T1, PD-L1 (Homo sapiens (Human), UniProt Q9NZQ7). The experiment in a line: PD-L1 occupancy on cells isolated from MC38-hPD-L1 tumors (flow cytometry). Conditions: cells from treated MC38-hPD-L1 tumors. It counts as in vivo, mouse. The protocol: (§1) Cellular phenotyping of tumor infiltrates: Excised tumors were finely chopped with a blade and meshed through 200 um sieve. Cells were then filtered through a […] sieve. Cells were washed and resuspended in FACS buffer (PBS 1× with 10% FBS and 0.1% azide).
(§2) Antibodies for flow cytometry were obtained from BioLegend (San Diego, CA). Flow cytometer panel included CD45 in FITC, PD-L1 in PE, CD8 in APC, CD4 in APC-Cy7. Flow cytometry data were acquired with a FACSCanto II (BD Biosciences, San Jose, CA) cytometer and analyzed using FlowJO v10.2 (FlowJo, Ashland, OR)
To examine the extent Compound 2.001 occupys PD-L1 on tumor cells, we utilized another PD-L1 detection antibody to stain the cells isolated from these tumors.
(A flow cytometer gives signals particle by particle.)
Target sequence in this assay (Q9NZQ7 19-290): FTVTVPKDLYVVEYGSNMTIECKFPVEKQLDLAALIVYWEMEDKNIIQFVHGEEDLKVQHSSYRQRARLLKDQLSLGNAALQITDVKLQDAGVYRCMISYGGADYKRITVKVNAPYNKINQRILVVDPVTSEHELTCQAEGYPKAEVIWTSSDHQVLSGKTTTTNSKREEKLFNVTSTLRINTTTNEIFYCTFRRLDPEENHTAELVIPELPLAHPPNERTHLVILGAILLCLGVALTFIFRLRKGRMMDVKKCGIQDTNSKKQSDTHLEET

Data set [3] relates to human T cells. Briefly: Mixed Lymphocyte Reaction (MLR), IFNgamma release. It counts as cell-based. The settings on record: for EC50: Homo sapiens, T-cell, T cells from different donors, read-out: EC50, release of INFgamma from human T cells. From the text: PBMCs Isolation: Peripheral blood mononuclear cells (PBMCs) were isolated from buffy coat from LRS chambers (leukoreduction systems) from healthy donors by density gradient centrifugation using StemCell SepMate™-50 tubes ([…] Technologies, Vancouver, CA) containing Ficoll-Paque Plus (Sigma Aldrich Inc., St. Louis, MO).
Generation of monocyte derived dendritic cells: CD14^+ monocytes were isolated from PBMCs by magnetic separation using human CD14^+ MicroBeads (MACS Miltenyi Biotech, Bergisch Gladbach, Germany) and an autoMACS® Pro Separator. Isolated monocytes were plated at a concentration of 1×10^6 cells/ml and differentiated to dendritic cells by adding GM-CSF (100 ng/ml) and IL-4 (50 ng/ml) for 6 days. Fresh media with cytokine supplement were added on day 0 and day 2. Mature dendritic cells were induced on day 6 by addition of IL-6 (2000 IU/ml), IL-1B (400 IU/ml) (Peprotech, Inc. Rocky Hill, NJ), TNFalpha (2000 IU/ml) and PGE2 (2 ug/ml) (Sigma Aldrich, Inc.) and cultured for 24 hours.
Preparation of human effector cells: CD4^+ T-Cells were isolated from PBMCs by magnetic separation using human CD4^+ MicroBeads (MACS Miltenyi Biotech) and an autoMACS® Pro Separator.
Mixed Lymphocyte Reaction (MLR): DC and CD4^+T-Cells from unmatched donors were cultured together in a ratio of 1:10 for 5 days in 96 well-flat bottom plates (Thermo Scientific). Test compounds were added as indicated at starting concentration of 1 μM with 1:4 dilutions with DMSO. PD-L1 antibody (AZ Medi4736 analog) and isotype control (Human IgG1, Kappa Isotype Control) (CrownBio, Beijing) were used as positive and negative control respectively. Supernatants were harvested after 5 days of incubation and detection of human IFNg was performed by ELISA using Human IFN-gamma DuoSet ELISA (R&D Systems, Minneapolis) as per manufacturer's instructions.

In data set [4] the test system is PD-1/PD-L1 interaction. The experiment in a line: PD-1/PD-L1 Blockade Cell-based Assay (NFAT luciferase reporter, CHO PD-L1 + Jurkat PD-1). The settings on record: Homo sapiens; CHO PD-L1 / Jurkat PD-1 co-culture; read-out: average EC50, NFAT promoter-driven luciferase expression. Background: In a reporter assay the amount or activity of a reporter protein is the signal.

The subject of data set [5] is MC38-hPD-L1 tumor. The experiment in a line: MC38-hPD-L1 tumor model in C57BL/6 mice. The data set is classed as in vivo, mouse. Conditions: for animals that achieved complete regression: 10 mice in each group, compounds 30 mg/kg orally b.i.d., antibody i.p. twice a week. The protocol:
Generation and culture of MC38-hPD-L1 cells: The compounds are only known to cross-react with human PD-L1, therefore a syngeneic tumor model with […] MC-38 colon tumor cells expressing human PD-L1 (MC38-hPD-L1 tumor model) was used. The MC38-hPD-L1 cells were generated by GenOway. Endogenous mouse PD-L1 was first knocked out in MC38 cells using CRISPR technology, then human PDL1 was stably transfected in these mouse PD-L1 Knock-out MC38 cells. The MC38-hPD-L1 cells were cultured under standard conditions for MC38 cells (DMEM with 10% fetal bovine serum and Penicillin/Streptomycin) with G418 for maintaining transgene expression. 2 days prior to inoculation of these cells to mice, cells were trysinized and seeded without antibiotics.
(§3) In Vivo Studies: 8-week-old, female C57BL/6 mice were injected s.c. with 5×10^5 MC38-hPD-L1 cells in the right flank. 9 days after tumor inoculation mice were randomly assigned to treatment groups based on tumor size. Only mice that developed measurable tumors were enrolled in the studies. Anti-PD-L1 (Durvalumab) or isotype control was given i.p. twice a week at 100 ug per mouse per dose for 2 weeks. Compound 2.001 and Compound 2.002 suspended in 1% HPMC was dosed p.o. daily at indicated doses, dosing volume 100 μl per mouse. The vehicle, 1% HPMC, was dosed at the same volume with the same frequency for control animals.
Tumor volume was measured three times per week using a digital caliper and calculated as (width^2*length/2). Mice were sacrificed when tumor volumes reached 2,000 mm^3 in accordance with IACUC guidelines.
Tumor width (W) and length (L) were measured with calipers 3 times a week and the tumor volume was calculated using the formula V=(W (2)×L)/2. When tumors reach 2000 mm^3 mice were sacrificed and tumor excised for further analysis.

The test system of data set [6] is A375-eGFP cells. Briefly: In Vitro Immunotherapy Potency Assay (PBMC-mediated tumor cell killing). It counts as cell-based. The settings on record: in the presence of pre-stimulated primary human PBMCs. The protocol:
In Vitro Immunotherapy Potency Assay: A375-eGFP-Puro Cells (ATCC) were grown in complete medium (DMEM+10% FBS+P/S 1×) containing lug/ml of puromycin. Human peripheral blood mononuclear cells (hPBMCs) were isolated from buffy coat from LRS chambers (leukoreduction systems) from healthy donors by density gradient centrifugation using StemCell SepMate™-50 tubes ([…] Technologies, Vancouver, CA) containing Ficoll-Paque Plus (Sigma Aldrich Inc., St. Louis, MO). […] Cells were washed twice and re-suspended into regular growth media. 3×10^4 A375-eGFP-Puro cells were seeded in 96-well clear bottom black TC treated plates in a final volume of 100 ul (Corning). Test compounds or anti-human PD-L1 antibody (AZ Medi4736 analog, CrownBio, Beijing) were added to the wells at different concentrations. SEB stimulated hPBMCs were added to the wells at a ratio of E:T (Effector cell: Target Cell) of […]. Mixed cells were incubated for 96 to 120 hours at 37° C. in 5% CO2. Medium was carefully aspired and 100 μl of PBS 1× was added to each well. Fluorescence from A375-eGFP cells was detected using FlexStation 3 plate reader.

The test system of data set [7] is tumor infiltrating CD8+ and CD4+ T cells. Briefly: Cellular phenotyping of tumor infiltrates in MC38-hPD-L1 tumor model. It counts as in vivo, mouse. Conditions: MC38-hPD-L1 tumors. As for the experimental part: as §1, §2
In data set [8] the target is T1, PD-L1. Briefly: PD-L1 Internalization Assay (surface PD-L1 by flow cytometry). It counts as cell-based. The settings on record: 37° C. The protocol: Internalization Assay: MC38-hPD-L1 cells (GenOway S.A., France) and RKO cells (ATCC) growing at 37° C. in 5% CO2 were detached, resuspended in cold FACS buffer (PBS 1× with 10% FBS and 0.1% azide) and added to 96-well assay plates (V-Bottom) (Axygen, Union City, CA) at a concentration of 10×10^4 cells/well. ChemoCentryx compounds or anti-human PD-L1 antibody (AZ Medi4736 analog) were added to the wells at different concentrations and incubated for 2 hours at 37° C. or 4° C. Cells were washed twice with iced cold FACS buffer and stained with recombinant rabbit monoclonal anti human PD-L1 antibody ([28-8] (PE) (ab209962), Abcam) or recombinant rabbit monoclonal IgG Isotype control ([EPR25A] (PE) (ab209478), Abcam) for 30 minutes on ice. Cells were washed twice with FACS buffer before performing FACS analysis. Data were analyzed using FlowJo software.
Target sequence in this assay (Q9NZQ7 19-290): as above

The target of data set [9] is T1, PD-L1. Briefly: PathHunter PD-L1 Dimerization Assay in U2OS cells. It counts as cell-based. The protocol:
Dimerization Assay PD-L1 protein dimerization was assessed in vitro by chemiluminescent detection using PathHunter® Dimerization assay (DiscoverX, Fremont, CA). The Assay was performed following vendor's protocol. 2×10^4 U2OS cells were plated in 96-well white bottom TC treated plates (Costar, San Jose, CA) in a final volume of 100 ul. ChemoCentryx compounds or anti-human PD-L1 antibody (AZ Medi4736 analog, CrownBio, Beijing) were added to experimental cells at different concentrations and incubated for 16 hours at 37° C. in 5% CO2. 110 ul of PathHunter Flash detection reagent (DiscoverX) was added to each well and incubated for 1 hour at room temperature in the dark. Chemiluminescent signal was measured on a FlexStation 3 plate reader (Molecular Devices, San Jose, CA) at a speed of 100 ms/well.
Target sequence in this assay (Q9NZQ7 19-290): as above
Target sequence in this assay (Q9NZQ7 19-290): as above

The nature of data set [10]: Plasma compound concentration in MC38-hPD-L1 tumor model. Conditions: trough after 3 days of dosing, oral. It counts as in vivo, mouse. The protocol:
as §3

Where [11] appears, read: PD-1/PD-L1 ELISA, class symbols, read-out: ELISA IC50.
[12] abbreviates: average from multiple assays, read-out: average IC50, inhibition of direct interaction of PD-L1 to PD-1.

Chain of human PD-L1 / human PD-1 interaction (Q9NZQ7 19-239): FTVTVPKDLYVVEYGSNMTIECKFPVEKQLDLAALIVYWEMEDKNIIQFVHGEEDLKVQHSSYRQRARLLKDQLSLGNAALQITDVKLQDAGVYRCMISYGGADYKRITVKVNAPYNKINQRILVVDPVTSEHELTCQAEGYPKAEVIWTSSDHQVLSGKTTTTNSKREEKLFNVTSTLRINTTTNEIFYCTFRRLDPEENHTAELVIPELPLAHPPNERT

As for `COc1nc(-c2cccc(-c3cccc(NC(=O)c4cn(C)c(=O)n(C)c4=O)c3C)c2Cl)ccc1CNC[C@@H]1CCC(=O)N1` [Compound 2.001], the values for the IC50 in data set [1] (setting [11]) and in [1] (setting [12]) were less than 10 nM and 0.3 nM, respectively. The “PD-L1 occupancy on tumor cells” value in [2] is “near complete PD-L1 occupancy”. Moreover, the “release of INFgamma from human T cells” value in [3] was “dose dependently increase”. Also, the EC50 in [3] is less than 100 nM; in data set [4] it was 52 nM. Besides, the “animals that achieved complete regression” value in [5] is 4 animals. In addition, the “killing of GFP labeled human cancer cell line A375” value in data set [6] is “promote killing”. Moreover, in data set [7], the “tumor infiltrating CD8+ and CD4+ T cells” value was “increased”. Also, the “surface PD-L1 levels” value in [8] was “profoundly reduces surface PD-L1 levels; also recorded: lower the surface PD-L1 levels”. The PD-L1 dimerization signal result in data set [9] was “strongly induced the dimerization signal; also recorded: induce PD-L1 dimerization”.
On to `COc1nc(-c2cccc(-c3cccc(NC(=O)c4cn(C)c(=O)n(C)c4=O)c3Cl)c2Cl)ccc1CNC[C@@H]1CCC(=O)N1` [Compound 2.002], for which the results for the IC50 in data set [1] (setting [11]) and in data set [1] (setting [12]) were less than 10 nM and 0.4 nM, respectively. Moreover, the “release of INFgamma from human T cells” value in data set [3] is given as “dose dependently increase”. For the same compound, the EC50 in data set [3] was less than 100 nM; in data set [4], 46 nM. In addition, the “mice with complete eradication of the tumors” value in data set [5] (30 mg/kg (b.i.d.), orally) was “Eight of the ten”. Further, in data set [5] (dosed orally, several doses), the tumor growth result was “dose dependently suppresses tumor growth; also recorded: tumor growth suppression in a dose-dependent manner”. Also, in data set [6], the “killing of GFP labeled human cancer cell line A375” value is on record as “promote killing”. The plasma compound concentrations entry in data set [10] is “dose-dependency”. The “surface PD-L1 levels” value in data set [8] is “profoundly reduces surface PD-L1 levels; also recorded: lower the surface PD-L1 levels”. For the same compound, the PD-L1 dimerization signal result in data set [9] is recorded as “strongly induced the dimerization signal; also recorded: induce PD-L1 dimerization”.
Consider `COc1nc(-c2cccc(-c3cccc(NC(=O)c4cn(C)c(=O)n(C)c4=O)c3C)c2Cl)ccc1CN[C@@H]1CCOC[C@@H]1O` [Compound 2.003], for which, in data set [1] (setting [11]), the IC50 was less than 10 nM.
Consider Durvalumab [reference compound], for which, in data set [5], the “animals that achieved complete regression” value is listed as 6 animals. In addition, the “surface PD-L1 levels” value in data set [8] is on record as “no effect”. Besides, the PD-L1 dimerization signal result in data set [9] (listed as anti-PD-L1 antibody) is on record as “do not induce such signal”.

A word on the IC50: it is the concentration needed to halve the response being measured. As a reminder, the EC50 is the midpoint of the concentration-response curve.
